Test results: patent US7015306B2 (BioSynthema, Inc., priority 1999, dated 2006)
pIC50, pKd: −log10 of the molar value. Where a SMILES comes first, the peptide text is derived from it. [ ]: non-standard residue; d: D form. The star is where a group is joined. ξ: configuration not given here. DTPA = O=C(O)CN(CCN(CC(=O)O)CC(=O)O)CCN(CC(=O)O)CC(=O)*; Phe(4-guanidino) = N=C(N)Nc1ccc(C[C@H](N)C(=O)O)cc1; ξGly(4-Pip(1-amidino)) = N=C(N)N1CCC(C(N)C(=O)O)CC1; ξPhe(4-guanidino) = N=C(N)Nc1ccc(CC(N)C(=O)O)cc1; ξGly(piperidin-4-yl) = NC(C(=O)O)C1CCNCC1; Pro(4-oxo) = O=C1CN[C@H](C(=O)O)C1; Ala(cPr) = N[C@@H](CC1CC1)C(=O)O; Tle = CC(C)(C)[C@H](N)C(=O)O; Aba(Apy) = not defined here; dPip = O=C(O)[C@H]1CCCCN1; Ac6c = NC1(C(=O)O)CCCCC1; Aze = O=C(O)[C@@H]1CCN1

Legend:
neurotensin receptors = neurotensin receptors (Homo sapiens, UniProt P30989); assay: Competitive binding assay on frozen tissue sections of receptor-positive human tumors vs radioiodinated native neurotensin; conditions: for pIC50: C-terminus modified derivatives
Source text: Frozen tissue sections from receptor-positive human tumors were used in a competitive binding assay.

[1] = In vitro serum stability assay (HPLC) of In-111 labeled peptide; type: in vitro ADME, human; conditions: for remaining at 4 h: t = 4 h
Procedure: (§1) All reagents were purchased from Sigma unless otherwise noted. The peptide and ^111InCl3 in 0.05 N HCl were incubated in a sodium acetate/ascorbic acid buffer for 30 minutes at room temperature. The reaction was diluted with 5% ethanol/95% PBS before using in subsequent in vitro assays.
(§2) Human serum was purchased from Sigma (H 1388). The labeled peptide was incubated in either human serum or rat urine at 37EC for the specified amount of time. An aliquot was filtered through a 0.45 μm syringe filter prior to HPLC injection.

[2] = In vitro urine stability assay (HPLC) of In-111 labeled peptide; type: in vitro ADME; conditions: for remaining at 4 h: rat, t = 4 h
Procedure: as §1, §2

[3] = human serum, 37EC, read-out: HPLC Evaluation of Serum Stability at 37EC, Serum, t = 4 h
[4] = 37EC, read-out: HPLC Evaluation of Urine Stability at 37EC, Urine, t = 4 h
[5] = Table 4, rat urine, read-out: Urine Stability, Urine (t = 4 h)

Chain of neurotensin receptors (P30989 whole entry): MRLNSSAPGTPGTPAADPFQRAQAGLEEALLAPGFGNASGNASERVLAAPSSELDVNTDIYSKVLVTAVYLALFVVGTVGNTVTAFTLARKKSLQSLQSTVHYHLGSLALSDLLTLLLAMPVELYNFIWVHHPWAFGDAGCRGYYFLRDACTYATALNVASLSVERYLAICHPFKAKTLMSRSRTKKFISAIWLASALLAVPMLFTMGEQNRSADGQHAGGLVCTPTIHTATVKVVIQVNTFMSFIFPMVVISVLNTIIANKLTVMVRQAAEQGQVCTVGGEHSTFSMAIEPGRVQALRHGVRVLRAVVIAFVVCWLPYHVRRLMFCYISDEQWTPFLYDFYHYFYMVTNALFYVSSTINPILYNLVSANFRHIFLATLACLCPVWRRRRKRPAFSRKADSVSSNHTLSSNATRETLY

| Molecule | pKd (neurotensin receptors; Table 3) | % of peptide at 4 hours after incubation at 37EC, Serum ([1]; human serum, 37EC, 4 hours) | % of peptide at 4 hours after incubation at 37EC, Urine ([2]; rat urine, 37EC, 4 hours) | other results |
| --- | --- | --- | --- | --- |
| CC(C)C[C@H](NC(=O)[C@@H](NC(=O)[C@H](Cc1ccc(O)cc1)NC(=O)[C@@H]1CCCN1C(=O)[C@H](CCCNC(=N)N)NC(=O)C(Cc1ccc(NC(=N)N)cc1)NC(=O)[C@@H]1CCCN1C(=O)[C@@H](CCCCN)NC(=O)CN(CCN(CCN(CC(=O)O)CC(=O)O)CC(=O)O)CC(=O)O)C(C)(C)C)C(=O)O (stereo partly drawn) [Compound IX, DTPA-DLys-Pro-Phe(4-guanyl)-Arg-Pro-Tyr-tBuGly-Leu-OH] ({DTPA}-[dK]P[ξPhe(4-guanidino)]RPY[Tle]L-OH) | 7.90 | 72.0% | 51.1% | pIC50 (neurotensin receptors): 7.90 |
| CC(C)C[C@H](NC(=O)[C@@H](NC(=O)[C@H](Cc1ccc(O)cc1)NC(=O)[C@@H]1CCCN1C(=O)[C@H](CCCNC(=N)N)NC(=O)C(NC(=O)[C@@H]1CCCN1C(=O)C(NC(=O)CN(CCN(CCN(CC(=O)O)CC(=O)O)CC(=O)O)CC(=O)O)C1CCNCC1)C1CCN(C(=N)N)CC1)C(C)(C)C)C(=O)O (stereo partly drawn) [Compound XI, DTPA-PipGly-Pro-Gly(PipAm)-Arg-Pro-Tyr-tBuGly-Leu-OH] ({DTPA}-[ξGly(piperidin-4-yl)]P[ξGly(4-Pip(1-amidino))]RPY[Tle]L-OH) | 8.41 | 95.9% | 93.6% |  |
| CC[C@H](C)[C@H](NC(=O)[C@H](Cc1ccc(O)cc1)NC(=O)[C@@H]1CCCN1C(=O)[C@H](CCCNC(=N)N)NC(=O)C(NC(=O)[C@@H]1CCCN1C(=O)[C@@H](CCCCN)NC(=O)CN(CCN(CCN(CC(=O)O)CC(=O)O)CC(=O)O)CC(=O)O)C1CCN(C(=N)N)CC1)C(=O)N[C@@H](CC(C)C)C(=O)O (single isomer, unassigned) [Compound II, DTPA-DLys-Pro-Gly(PipAm)-Arg-Pro-Tyr-Ile-Leu-OH] |  | 19.5% | 16.6% | pKd (neurotensin receptors; Table 1): 8.57; % of compound present at 4 hours in serum ([1]; human serum, 37EC, 4 hours): 19.5%; % of compound present at 4 hours in urine ([2]; rat urine, 37EC, 4 hours): 16.6% |
| CC[C@H](C)[C@H](NC(=O)[C@H](Cc1ccc(O)cc1)NC(=O)[C@@H]1CCCN1C(=O)C(CCc1ccnc(N)n1)NC(=O)[C@H](CCCNC(=N)N)NC(=O)[C@@H]1CCCN1C(=O)[C@@H](CCCCN)NC(=O)CN(CCN(CCN(CC(=O)O)CC(=O)O)CC(=O)O)CC(=O)O)C(=O)N[C@@H](CC(C)C)C(=O)O (single isomer, unassigned) [DTPA-DLys-Pro-Arg-Aba(Apy)-Pro-Tyr-Ile-Leu-OH] | 5.92 | 15.7% | 4.7% |  |
| CC(C)C[C@H](NC(=O)[C@@H](NC(=O)[C@H](Cc1ccc(O)cc1)NC(=O)[C@H]1CCCCN1C(=O)[C@H](CCCNC(=N)N)NC(=O)C(NC(=O)[C@@H]1CCCN1C(=O)[C@@H](CCCCN)NC(=O)CN(CCN(CCN(CC(=O)O)CC(=O)O)CC(=O)O)CC(=O)O)C1CCN(C(=N)N)CC1)C(C)(C)C)C(=O)O (stereo partly drawn) [DTPA-DLys-Pro-Gly(PipAm)-Arg-DPipCA-Tyr-tBuGly-Leu-OH] ({DTPA}-[dK]P[ξGly(4-Pip(1-amidino))]R[dPip]Y[Tle]L-OH) | < 6.00 | 96.2% | 91.9% |  |
| CC(C)C[C@H](NC(=O)C1(NC(=O)[C@H](Cc2ccc(O)cc2)NC(=O)[C@@H]2CCCN2C(=O)[C@H](CCCNC(=N)N)NC(=O)C(NC(=O)[C@@H]2CCCN2C(=O)[C@@H](CCCCN)NC(=O)CN(CCN(CCN(CC(=O)O)CC(=O)O)CC(=O)O)CC(=O)O)C2CCN(C(=N)N)CC2)CCCCC1)C(=O)O (stereo partly drawn) [DTPA-DLys-Pro-Gly(PipAm)-Arg-Pro-Tyr-Achc-Leu-OH] ({DTPA}-[dK]P[ξGly(4-Pip(1-amidino))]RPY[Ac6c]L-OH) | < 5.00 | 89.9% | 84.9% |  |
| DTPA-DLys-Pro-Aba(Apy)-Aba(Apy)-Pro-Tyr-Ile-Leu-OH ({DTPA-dK-Pro-Aba(Apy)-Aba(Apy)}-PYIL-OH; reading uncertain) | < 5.00 |  |  |  |
| CC(C)C[C@H](NC(=O)[C@@H](NC(=O)[C@H](Cc1ccc(O)cc1)NC(=O)[C@@H]1CCCN1C(=O)[C@H](CCCNC(=N)N)NC(=O)C(NC(=O)[C@@H]1CCCN1C(=O)[C@@H](CCCCN)NC(=O)CN(CCN(CCN(CC(=O)O)CC(=O)O)CC(=O)O)CC(=O)O)C1CCN(C(=N)N)CC1)C(C)(C)C)C(=O)O (single isomer, unassigned) [Compound X, DTPA-DLys-Pro-Gly(PipAm)-Arg-Pro-Tyr-tBuGly-Leu-OH] | 8.46 | 87.5% | 63.0% | pIC50 (neurotensin receptors): 8.46 |
| CC(C)C[C@H](NC(=O)[C@@H](NC(=O)[C@H](Cc1ccc(O)cc1)NC(=O)[C@@H]1CC(=O)CN1C(=O)[C@H](CCCNC(=N)N)NC(=O)C(NC(=O)[C@@H]1CCCN1C(=O)[C@@H](CCCCN)NC(=O)CN(CCN(CCN(CC(=O)O)CC(=O)O)CC(=O)O)CC(=O)O)C1CCN(C(=N)N)CC1)C(C)(C)C)C(=O)O (stereo partly drawn) [DTPA-DLys-Pro-Gly(PipAm)-Arg-(4-oxo)Pro-Tyr-tBuGly-Leu-OH] ({DTPA}-[dK]P[ξGly(4-Pip(1-amidino))]R[Pro(4-oxo)]Y[Tle]L-OH) | < 6.00 | 78.5% | 79.7% |  |
| CC(C)(C)[C@H](NC(=O)[C@H](Cc1ccc(O)cc1)NC(=O)[C@@H]1CCCN1C(=O)[C@H](CCCNC(=N)N)NC(=O)C(NC(=O)[C@@H]1CCCN1C(=O)[C@@H](CCCCN)NC(=O)CN(CCN(CCN(CC(=O)O)CC(=O)O)CC(=O)O)CC(=O)O)C1CCN(C(=N)N)CC1)C(=O)N[C@@H](CC1CC1)C(=O)O (stereo partly drawn) [DTPA-DLys-Pro-Gly(PipAm)-Arg-Pro-Tyr-tBuGly-Cpa-OH] ({DTPA}-[dK]P[ξGly(4-Pip(1-amidino))]RPY[Tle][Ala(cPr)]-OH) | 6.54 | 88.1% | 73.6% |  |
| CC(C)C[C@H](NC(=O)[C@@H](NC(=O)[C@H](Cc1ccc(O)cc1)NC(=O)[C@@H]1CCN1C(=O)[C@H](CCCNC(=N)N)NC(=O)C(NC(=O)[C@@H]1CCCN1C(=O)[C@@H](CCCCN)NC(=O)CN(CCN(CCN(CC(=O)O)CC(=O)O)CC(=O)O)CC(=O)O)C1CCN(C(=N)N)CC1)C(C)(C)C)C(=O)O (stereo partly drawn) [DTPA-DLys-Pro-Gly(PipAm)-Arg-AzeCA-Tyr-tBuGly-Leu-OH] ({DTPA}-[dK]P[ξGly(4-Pip(1-amidino))]R[Aze]Y[Tle]L-OH) | 6.13 | 79.2% | 36.5% |  |
| CC[C@H](C)[C@H](NC(=O)[C@H](Cc1ccc(O)cc1)NC(=O)[C@@H]1CCCN1C(=O)[C@H](Cc1ccc(NC(=N)N)cc1)NC(=O)[C@H](Cc1ccc(NC(=N)N)cc1)NC(=O)[C@@H]1CCCN1C(=O)[C@@H](CCCCN)NC(=O)CN(CCN(CCN(CC(=O)O)CC(=O)O)CC(=O)O)CC(=O)O)C(=O)N[C@@H](CC(C)C)C(=O)O [In-111-DTPA-DK-P-F(Gu)-F(Gu)-P-Y-I-L, metal not drawn] ({DTPA}-[dK]P[Phe(4-guanidino)][Phe(4-guanidino)]PYIL-OH; C-terminus assumed) |  |  |  | remaining at 4 h [1, 3]: 25.2%; HPLC Evaluation of Serum Stability at 37EC, Serum, t = 0 ([1]; human serum): 99.0%; HPLC Evaluation of Urine Stability at 37EC, Urine, t = 0 ([2]; rat urine): 92.3%; remaining at 4 h [2, 4]: 2.3% |
| CC[C@H](C)[C@H](NC(=O)[C@H](Cc1ccc(O)cc1)NC(=O)[C@@H]1CCCN1C(=O)[C@H](CCCNC(=N)N)NC(=O)[C@H](CCCNC(=N)N)NC(=O)CN(CCN(CCN(CC(=O)O)CC(=O)O)CC(=O)O)CC(=O)O)C(=O)N[C@@H](CC(C)C)C(=O)O [In-111-DTPA-R-R-P-Y-I-L, metal not drawn, reference compound] |  |  |  | remaining at 4 h [1, 3]: 1.6%; HPLC Evaluation of Serum Stability at 37EC, Serum, t = 0 ([1]; human serum): 92%; HPLC Evaluation of Urine Stability at 37EC, Urine, t = 0 ([2]; rat urine): 96.7%; remaining at 4 h [2, 4]: 13%; remaining at 4 h [2, 5]: 14% |
| CC(C)C[C@H](NC(=O)[C@@H](NC(=O)[C@H](Cc1ccc(O)cc1)NC(=O)[C@@H]1CCCN1C(=O)[C@H](CCCNC(=N)N)NC(=O)C(NC(=O)[C@@H]1CCCN1C(=O)[C@@H](CCCCN)NC(=O)CN(CCN(CCN(CC(=O)O)CC(=O)O)CC(=O)O)CC(=O)O)C1CCN(C(=N)N)CC1)C(C)(C)C)C(=O)O (single isomer, unassigned) [In-111-DTPA-DK-P-G(PipAm)-R-P-Y-tBuG-L, metal not drawn] |  |  |  | remaining at 4 h ([1]; Table 4, human serum, read-out: Serum Stability, Serum (t = 4 h)): 87.5%; remaining at 4 h [2, 5]: 63% |
| CC[C@H](C)[C@H](NC(=O)[C@H](Cc1ccc(O)cc1)NC(=O)[C@@H]1CCCN1C(=O)[C@H](CCCNC(=N)N)NC(=O)C(CCc1ccnc(N)n1)NC(=O)[C@@H]1CCCN1C(=O)[C@@H](CCCCN)NC(=O)CN(CCN(CCN(CC(=O)O)CC(=O)O)CC(=O)O)CC(=O)O)C(=O)N[C@@H](CC(C)C)C(=O)O (single isomer, unassigned) [In-111-DTPA-DK-P-Aba(Apy)-R-P-Y-J-L, metal not drawn] |  |  |  | remaining at 4 h [1, 3]: 4.3%; HPLC Evaluation of Serum Stability at 37EC, Serum, t = 0 ([1]; human serum): 96.9%; HPLC Evaluation of Urine Stability at 37EC, Urine, t = 0 ([2]; rat urine): 95.6%; remaining at 4 h [2, 4]: 6% |
